Where “and” joins values, the source holds several entries; their conditions need not be identical. Equal values may be shown once.
Legend:
[1] = tested on: human mesenchymal stem cells (hMSCs); test: MTS assay on hMSCs; assay type: cell-based; conditions: nM concentration
Protocol: complex. Supplementary Figure 5. […]
here as reference for BRD4 inhibitory activity. […] NA=
1 hour incubation with liver microsomes. C.
ULK3 rendered in Pymol (Schrodinger Inc.) at a 2.8 Å resolution. D. Table summarizing hULK3-MA9060 crystallographic data collection and refinement statistics. E. MA9060 is a dual inhibitor, able to decrease both ULK3 and MYC protein levels in MYC-dependent MM1.S MM cells. JQ1 is here included as the control for […]
mesenchymal stem cells (hMSCs) at 24 (G) and 48 (H) hours.

[2] = tested on: U266-Luc MM cells; test: U266-Luc in vivo model, tail vein injection; conditions: 10 mg/kg/day subcutaneously, M-F
Protocol: For the U266-Luc model, 1 × 10^6 cells (100 μl/PBS) were tail vein injected into 4- to 6-week-old female and male NSG mice. […] Endpoint was represented by hind limb paralysis or >20% weight loss. When sacrificed, tumors tibiae were harvested and fixed in 10% neutral buffered formalin for 24 hours. Bioluminescent signal is reported as the average of the sum of dorsal and ventral signal of the mice/group/timepoint. […]
28 Animal Experimentation: All animal experiments were performed with approval from the
29 Moffitt/University of South Florida Institutional Animal Care and Use Committee (Protocol
31 validation of MA9 efficacy (Figure 4), we initially included n = 10 mice per treatment group:
Randomization based on sex, weight,
33 and initial tumor burden was conducted, followed by treatment with either vehicle control (n = 6),
35 Tumor progression was tracked via bioluminescence: endpoint was paralysis or >20% weight loss.
36 Experiments were blinded. […]
38 For MA9 therapy efficacy, mice were treated with vehicle (n=10) or MA9 (10 mg/kg/day,
39 subcutaneously, M-F from day 20; n=10) (Supplementary Fig. 7E, F). Survival and toxicity
40 (weight, clinical signs) was monitored.
43 Luciferase-labeled MM cells 5TGM1-Luc (RRID: CVCL_VI66) and U266-Luc (RRID: […]
51 cells (all from the ATCC, USA) were routinely cultured at 37 °C in Roswell Park Memorial
53 FBS1) and penicillin/streptomycin (hereafter, complete medium).
54 Cells were not used for five days following PI-treatment. All myeloma cell lines were […]

[3] = tested on: primary CD138+ MM cells; test: EMMA ex vivo platform, live cell imaging, 96 hours, collagen matrix with bone marrow stroma and patient plasma; assay type: cell-based; design: scale not given here
From the text: For clinical robustness, we tested the activity of MA9 in MM patient samples using our ex vivo mathematical myeloma advisor (EMMA) platform (Supplementary Table 1). […]
For these assays, we used a novel EMMA platform developed at Moffitt. Further details are included in the supplemental Materials. […]
400 Ex vivo drug sensitivity characterization
401 An ex vivo assay was used to quantify the chemosensitivity of primary MM cells. Fresh BM
402 aspirate cells were enriched for CD138+ expression using Miltenyi (Bergisch Gladbach, Germany)
MM cells (CD138+) were seeded in Corning
404 Cell BIND 384 well plates (Corning, NY) with collagen I and previously established human-
407 inactivated), penicillin/streptomycin, and patient-derived plasma (10%, freshly obtained from
409 added using a robotic plate handler so that every drug/combination was tested at 5 (fixed
410 concentration ratio, for combinations) concentrations (1:3 serial dilution) in two replicates.
411 Negative controls (supplemented growth media with and without the vehicle control dimethyl
412 sulfoxide [DMSO]) were included, as well as positive controls for each drug (cell line MM1.S at
413 highest drug concentration). Plates were placed in a motorized stage microscope (EVOS Auto FL,
414 Life Technologies, Carlsbad, CA) equipped with an incubator and maintained at 5% CO2 and 37
415 °C. […]
Digital image analysis computes the percent
418 viability of MM cells for each time point and experimental condition (drug and concentration)

## Cc1cnc(Nc2ccc(C3CCN(C)CC3)c(F)c2)nc1Nc1ccc(Cl)c(NS(=O)(=O)C(C)(C)C)c1 [MA9060]
[1]
  toxicity to normal primary human MSCs: not toxic
[2]
  MM-induced osteolysis (X-ray, histology): significantly protected against MM-induced osteolysis
  toxicity (weight loss, lethargy, ruffled hair): did not show any sign of toxicity
  tumor growth (bioluminescence) vs control: significantly impaired tumor growth
[2]; listed as MA9
  toxicity (weight loss, lethargy, ruffled hair): no overt toxicities
[3]; Pt648, LRMM
  AUC: 42.835
[3]; Pt653, LRMM
  AUC: 41.560
[3]; Pt655, LRMM, listed as MA9
  AUC: 26.03
[3]; Pt663, LRMM, listed as MA9
  AUC: 47.02
[3]; Pt665, LRMM, listed as MA9
  AUC: 70.14
[3]; Pt666, LRMM, listed as MA9
  AUC: 49.23
[3]; Pt669, ERMM, listed as MA9
  AUC: 29.51
[3]; Pt672, NDMM, listed as MA9
  AUC: 49.16
[3]; Pt677, NDMM
  AUC: 43.301 and 45.593
[3]; Pt680, ERMM
  AUC: 42.605
[3]; Pt680, ERMM, listed as MA9
  AUC: 35.24
[3]; Pt685, ERMM, listed as MA9
  AUC: 100
[3]; Pt689, NDMM
  AUC: 97.182
[3]; Pt691, LRMM, listed as MA9
  AUC: 68.66
[3]; Pt693, SMOL, listed as MA9
  AUC: 70.97
[3]; Pt694, NDMM, listed as MA9
  AUC: 47.51
[3]; Pt695, LRMM, listed as MA9
  AUC: 70.64
[3]; Pt697, NDMM, listed as MA9
  AUC: 65.92
[3]; Pt700, NDMM
  AUC: 71.574
[3]; Pt700, NDMM, listed as MA9
  AUC: 71.39
[3]; Pt707, LRMM, listed as MA9
  AUC: 73.56
[3]; Pt718, SMOL, listed as MA9
  AUC: 76.17
[3]; Pt737, MGUS
  AUC: 42.854
[3]; Pt738, NDMM, listed as MA9
  AUC: 65.97
[3]; Pt740, SMOL
  AUC: 62.223
[3]; Pt745, NDMM
  AUC: 55.970
[3]; Pt825, NDMM
  AUC: 100
[3]; Pt852, NDMM
  AUC: 41.956
[3]; Pt853, ERMM
  AUC: 49.879 and 54.514
[3]; Pt856, NDMM, listed as MA9
  AUC: 72.33
[3]; Pt865, LRMM, listed as MA9
  AUC: 59.28
[3]; Pt866, NDMM, listed as MA9
  AUC: 37.56
[3]; Pt875, NDMM, listed as MA9
  AUC: 21.1
[3]; Pt885, NDMM
  AUC: 28.777
[3]; Pt885, NDMM, listed as MA9
  AUC: 27.78
[3]; Pt888, LRMM, listed as MA9
  AUC: 59.98
[3]; Pt893, LRMM
  AUC: 96.916
[3]; Pt899, SMOL
  AUC: 28.290
[3]; Pt906, NDMM, listed as MA9
  AUC: 43.69
[3]; Pt909, LRMM
  AUC: 46.043
[3]; Pt912, PCL
  AUC: 41.302
[3]; Pt917, LRMM
  AUC: 73.927
[3]; Pt920, LRMM
  AUC: 44.399
[3]; Pt923, LRMM, listed as MA9
  AUC: 28.34
[3]; Pt932, LRMM
  AUC: 45.003
[3]; Pt933, LRMM, listed as MA9
  AUC: 57.89
[3]; Pt935, NDMM, listed as MA9
  AUC: 25.47
[3]; Pt936, LRMM
  AUC: 83.700
[3]; Pt937, NDMM
  AUC: 48.139 and 40.693
[3]; Pt940, LRMM
  AUC: 72.923
[3]; Pt945, LRMM
  AUC: 39.091
[3]; Pt948, LRMM, listed as MA9
  AUC: 24.69
[3]; Pt951, ERMM, listed as MA9
  AUC: 62.38
[3]; Pt956, NDMM
  AUC: 67.208 and 74.021
[3]; Pt957, LRMM
  AUC: 80.043
[3]; Pt961, NDMM
  AUC: 66.118 and 49.072

— article PMC12363935, “Unc-51 Like Kinase 3 (ULK3) is essential for autophagy and cell survival in multiple myeloma” (Research Square, 2025)
